Data reported in patent publication US20080227766A1, “Synergistic, Silver-Containing Biocide Composition” (THOR GMBH, priority 2005, published 2008).

How the values were obtained:
[1] = tested on: Staphylococcus aureus (ATCC 6538); experiment: MIC and synergy index (Kull) in Müller-Hinton broth; format: cell-based
Experimental: (§1) The synergism of a combination of silver with 1,2-benzisothiazolin-3-one (BIT) was tested. Silver was used in the form of silver nitrate. […] The test organism used was the gram-negative bacterium Pseudomonas aeruginosa (ATCC 9027). For the test, aqueous mixtures with different concentrations of silver nitrate and BIT were prepared and were tested for their activity on Pseudomonas aeruginosa. The aqueous mixtures further included a Müller-Hinton broth (commercial product “Merck Nr. 10393”) as nutrient medium. The cell density of Pseudomonas aeruginosa was 10^6 microbes/ml.
[…] Each sample was incubated at 120 rpm on an incubation shaker. […] Growth was shown through a clouding of the nutrient medium. In this way, the minimum inhibitory concentrations (MICs) of the two actives, individually and in combination, were ascertained. The MIC is the concentration at which there is no longer any clouding of the nutrient medium.
(§2) The synergism arising was represented numerically by calculation of the synergy index (SI). The calculation was made in accordance with the commonplace method of F. C. Kull et al., Applied Microbiology, vol. 9 (1961), p. 538. There the SI is calculated according to the following formula:
synergy index SI=Qa/QA+Qb/QB.
When this formula is applied to the biocide system BIT+Ag under test here, the parameters in the formula are defined as follows: • Qa=concentration of BIT in the biocide mixture of BIT+Ag • QA=concentration of BIT as a single biocide • Qb=concentration of Ag in the biocide mixture of BIT+Ag • QB=concentration of Ag as a single biocide
If the synergy index has a value of more than 1, this means that antagonism is present. If the synergy index adopts a value of 1, this means that the two biocides have an additive effect.
The experiment from example 2 was repeated in the same way but using the gram-positive test organism Staphylococcus aureus (ATCC 6538) instead of Pseudomonas aeruginosa.
Example 3 was repeated in the same way, but with N-methyl-1,2-benzisothiazolin-3-one (MBIT) as the biocidal component.
Example 3 was repeated, but using N-butyl-1,2-benzisothiazolin-3-one (BBIT) as the biocidal component.

[2] = tested on: Pseudomonas aeruginosa (ATCC 9027); experiment: as above; format: cell-based; details: 72 h/25° C.
Experimental: as §1
The incubation time was 72 h at 25° C. Each sample was incubated at 120 rpm on an incubation shaker. After 72 h the samples were inspected for growth of Pseudomonas aeruginosa. Growth was shown through a clouding of the nutrient medium. In this way, the minimum inhibitory concentrations (MICs) of the two actives, individually and in combination, were ascertained. The MIC is the concentration at which there is no longer any clouding of the nutrient medium.
as §2
synergy index SI=Qa/QA+Qb/QB. […]

[Ag] [Ag, silver]
MIC at Ag concentration Qb ([1]; 72 h/25° C., Ag in mixture BIT + Ag (or Ag alone)): 19.1 ppm
MIC at Ag concentration Qb ([1]; 96 h/25° C., Ag in mixture BBIT + Ag (or Ag alone)): 25.4 ppm
MIC at Ag concentration Qb ([1]; 96 h/25° C., Ag in mixture MBIT + Ag (or Ag alone)): 27 ppm
MIC at Ag concentration Qb ([2]; Ag (from silver nitrate) in mixture BIT + Ag (or Ag alone)): 25.4 ppm

Cn1sc2ccccc2c1=O [MBIT, N-methyl-1,2-benzisothiazolin-3-one]
MIC at MBIT concentration Qa ([1]; 96 h/25° C., MBIT in mixture MBIT + Ag (or MBIT alone)): 20 ppm

CCCCn1sc2ccccc2c1=O [BBIT, N-butyl-1,2-benzisothiazolin-3-one]
MIC at BBIT concentration Qa ([1]; 96 h/25° C., BBIT in mixture BBIT + Ag (or BBIT alone)): 20 ppm

O=c1[nH]sc2ccccc12 [BIT, 1,2-benzisothiazolin-3-one]
MIC at BIT concentration Qa ([1]; 72 h/25° C., BIT in mixture BIT + Ag (or BIT alone)): 20 ppm
MIC at BIT concentration Qa ([2]; BIT in mixture BIT + Ag (or BIT alone)): 40 ppm
